The results in this text go back to paper PMC12459184, “Design, synthesis, and bioevaluation of pyrazole-containing tubulin polymerisation inhibitors based on conformational constraint strategy” (Journal of Enzyme Inhibition and Medicinal Chemistry, 2025).

Usually IC50 stands for the concentration that gives 50% inhibition.

For assay [1], the system named is A549 cells. Description: MTT antiproliferative assay, A549. To be noted: Homo sapiens, 72 h drug exposure, read-out: IC50 (μM) ± SD A549. The format is cell-based. Here is the method:
(§1) All cell lines tested in this study were purchased from the American Type Culture Collection (ATCC, Manassas, VA). SGC-7901 (human gastric adenocarcinoma), HCT-116 (human colon carcinoma), and A549 (human pulmonary carcinoma) cells were cultured in RPMI-1640 medium containing 10% foetal serum (FBS) and 1% penicillin-streptomycin solution (100×). MCF-7 (human breast carcinoma) cells were cultured in DMEM medium containing 10% foetal serum (FBS) and 1% penicillin-streptomycin solution (100×). PC-3 (human prostate carcinoma) cells were cultured in Ham’s F-12K medium containing 10% foetal serum (FBS) and 1% penicillin-streptomycin solution (100×). All cells were cultured at 37 °C in a humidified atmosphere containing 5% CO2.
(§2) Cells grown in logarithmic phase were harvested and seeded onto 96-well cell plates at a density of 4 ∼ 5 × 10^3 cells per well (various from cell type) and were cultured for 24 h. Different concentrations of compounds were added into the wells, and the cells were cultured for another 72 h. The medium was removed, then 20 μL of MTT (5 mg/mL in PBS) was added to each well and the cells were incubated for 4 h. 150 μL of DMSO was added to each well to dissolve the formazan, and the absorbance at 490 nm of each well was measured by a microplate reader. IC50 values were calculated by SPSS software.
For orientation: Tetrazolium assays rely on reduction of a dye to a coloured formazan, in cell work by metabolically active cells.

Assay [2] concerns PC-3 cells. Description: MTT antiproliferative assay, PC-3. The class given is cell-based. The settings on record: Homo sapiens, 72 h drug exposure, read-out: IC50 (μM) ± SD PC-3. Here is the method: as §1, §2

Regarding `COc1cc(C2=NCC(=O)Nc3cn(-c4ccccc4)nc32)cc(OC)c1OC` [5a, 2-Phenyl-8–(3,4,5-trimethoxyphenyl)-2,6-dihydropyrazolo[4,3-e][1,4]diazepin-5(4H)-one], the IC50 in assay [1] is 0.063 ± 0.017 µM; in assay [2], 0.006 ± 0.002 µM.
On to `COc1cc(C(=O)c2nn(-c3ccc(N)cc3)cc2N)cc(OC)c1OC` [4k, (4-amino-1–(4-aminophenyl)-1H-pyrazol-3-yl)(3,4,5-trimethoxyphenyl)methanone], for which the values for the IC50 in assay [1] and in assay [2] were 0.04 ± 0.012 µM and 0.015 ± 0.004 µM, respectively.
